# Results reported in patent US20200214999A1, “Method for Treating an Inflammatory Disorder” (Allianz Pharmascience Ltd., priority 2019, published 2020).
# How the values were obtained:
# [1] = test system: IMQ-induced psoriatic inflammation; experiment: IMQ-induced psoriatic inflammation model, #1 animal experiment (10 days); format: in vivo, Balb/c mice; conditions: for erythema, scaling, and thickness in lesional skins: photographic observation
# Description: Balb/c mice were topical treated with imiquimod (IMQ) and with control cream, ASC-J9 or clobetasol for consecutive 10 days. (A) Schematic schedule was illustrated. Photographic observations in each group were shown at day 0 (B), day 5 (C) and day 10 (D).
# Balb/c mice were topical treated with imiquimod (IMQ) and with control cream, ASC-J9 or clobetasol for consecutive 10 days. (A) The severity of inflammatory responses on the skin was assessed on the basis of the Psoriasis Area Severity Index. (B) Ten days after treatment, the mice were sacrificed and their skin thickness was measured with vernier caliper to assess the severity of the psoriatic responses. (C) Expession of cytokine genes in mouse skin after 10 day treatment by RT-qPCR. (D) H&E staining of lesional skin after 10 day treatment. *: p<0.05; **: […]; ns: not significant.
# (§1) Animal Model of Psoriatic Inflammation: 30 or 40 mg of 5% IMQ gel (Aldara™) was smeared on the shaved backs of Balb/c mice each day for 5 or 10 days. The severity of the skin's inflammatory response was assessed on the basis of the Psoriasis Area Severity Index (PASI) as described. Briefly, the three parameters of psoriasis responses—erythema, scaling, and skin thickness—were scored independently on a scale from 0 to 4 as follows: 0: none; 1: slight; 2: moderate; 3: marked; and 4: very marked. By adding the scores from these three parameters, the severity of the response was measured using the cumulative score from 0 to 12. At the end of the experiment, the mice were sacrificed for measurement of skin thickness with vernier caliper. Group Assignments and Dose Levels of animal studies are described as follows:
# (§2) The mice were (1) photoed for evaluation and analyzed (2) Psoriasis Area Severity Index (PASI); (3) Skin thickness measurement. We selected the sample in experiment with better inhibitory effect for further analysis by accessing: (1) H&E staining and (2) inflammatory gene expression including TNF-α, IL-1β, IL-17A, IL-22, IL-23 and IL-31 in lesional tissue by quantitative PCR (RT-qPCR).
# We further evaluated anti-inflammatory effects of J9 on psoriatic inflammation in vivo. First, we compared the effects of J9 control cream, J9 cream and clobetasol on inhibition of IMQ-induced psoriatic inflammation in a 10-day experimental schedule (FIG. 5A). Mice of each group were photoed for evaluation at day 0, day 5 and day 10 (FIGS. 5B, 5C and 5D). […] In control cream group, there were no inhibitory effects observed (FIG. 5B). […] These phenomena were reached most severe at day 5 (FIGS. 5 and 6A). […] The skin thickness were measured at day 10. […] Expression of cytokine genes including TNF-α, IL-1β, IL-17A, IL-22, IL-23 and IL-31 in lesional skin were also analyzed. Of these cytokines, we observed that J9 attenuated IMQ-induced IL-1β expression at day 10 (FIG. 6C).
# [2] = test system: GMDC (mouse bone marrow derived myeloid dendritic cells); experiment: MTS assay for cell viability (cytotoxicity) on GMDC; format: cell-based; conditions: 24 hours, 0 μM to 10 μM tested
# Description: (§3) Cells were treated with different concentration of ASC-J9 and ASC-JM17 for 24 hours. Viability of cells were measured by MTS Assays. *: p<0.05.
# (§4) MTS assay for cell viability: The cell toxicity of test articles is measured by MTS assay. The MTS assay is based on the reduction of the MTS tetrazolium compound by viable cells to generate a colored formazan dye that is soluble in cell culture media. This conversion is thought to be carried out by NAD(P)H-dependent dehydrogenase enzymes in metabolically active cells. The formazan dye is quantified by measuring the absorbance at 490-500 nm. The non-toxic dose will be applied for further assays.
# (§5) Cell culture: Mouse bone marrow derived dendritic cells (BMDC) and bone marrow derived macrophages (BMDM) were generated from mouse bone marrow cells. Briefly, dendritic cells can be generated by two induction procedures. Bone marrow cells can be induced into myeloid DCs called GMDC with GM-CSF and IL-4 for 10 days, while a mixed types of DCs including myeloid and plasmacytoid DCs called Fit3DC can be generated by induction with fit3-ligand for 10 days. […]
# (§6) The goal of this example is to evaluate the anti-inflammatory abilities of J9 and JM17 on psoriatic inflammation in vitro and in vivo. To find the safety doses of J9 and JM17 for in vitro study, cytotoxicity of J9 and JM17 were measured by MTS assay. […]
# [3] = test system: Fit3DC (mouse bone marrow derived dendritic cells, fit3-ligand induced); experiment: MTS assay for cell viability (cytotoxicity) on Fit3DC; format: cell-based; conditions: 24 hours, 0 μM to 10 μM tested
# Description: as §3, §4, §5, §6
# [4] = test system: inflammatory cytokine induced cytokine expression in dendritic cells (GMDC); experiment: TNF-α or IL-1β induced cytokine expression in GMDC by RT-qPCR; format: cell-based, mouse; conditions: GMDC pre-treated 1 hr, then TNF-α or IL-1β for 24 hrs
# Description: Dendritic cells were pre-treated with different concentration of ASC-J9 and ASC-JM17 for 1 hour and then inflammatory cytokine TNF-α or IL-1β were added for 24 hours. Expression of mouse cytokine genes was measured by RT-qPCR. *: p<0.05; ns: not significant.
# (§7) Cell culture: Mouse bone marrow derived dendritic cells (BMDC) and bone marrow derived macrophages (BMDM) were generated from mouse bone marrow cells. Briefly, dendritic cells can be generated by two induction procedures. Bone marrow cells can be induced into myeloid DCs called GMDC with GM-CSF and IL-4 for 10 days, while a mixed types of DCs including myeloid and plasmacytoid DCs called Fit3DC can be generated by induction with fit3-ligand for 10 days. To generate BMDMs, bone marrow cells are induced into BMDM by 30% L929 conditioned medium for 7 days.
# (§8) Analysis of gene expression: Total RNA was purified from cells using Isol-RNA Lysis Reagent (5 PRIME GmbH, Hilden, Germany) according to the manufacturer's protocol. Reverse-transcription was performed using the QuantiNova® Reverse Transcription Kit (QIAGEN™) and oligo-dT primers for first-strand cDNA synthesis. Quantitative PCR was performed with gene-specific primers (see appendix) using LightCycler480 detection system (Roche Diagnostics GmbH, Penzberg, Germany) and QuantiNova® SYBR Green RT-PCR Kit for gene expression analysis. The level of mRNA expression was normalized to that of GAPDH.
# (§9) Anti-inflammatory effects of J9 and JM17 for inflammatory cytokine including TNF-α, IL-1β, IL-17A, IL-22, IL-23 and IL-31 induced by TLR ligand in various immune cells including mouse splenocytes, mouse bone marrow derived dendritic cells and bone marrow derived macrophages were analyzed by quantitative PCR (RT-qPCR).
# To evaluate the anti-inflammatory effects of J9 and JM17 in vitro, GMDC were pre-treated with J9 and JM17 for 1 hr and stimulated with the inflammatory cytokine, TNF-α or IL-1β[…]for 24 hrs. Expression of cytokines including TNF-α, IL-1β, IL-17A, IL-22, IL-23, and IL-31 were measured by RT-qPCR. […] Expression of IL-17A was not induced by TNF-α or IL-1β. […]
# [5] = test system: R848 induced cytokine expression in mouse splenocytes; experiment: R848 induced cytokine expression in mouse splenocytes by RT-qPCR; format: cell-based; conditions: 1 μM pre-treatment 1 hr, R848 6 hrs
# Description: Mouse splenocytes were pre-treated with 1 μM of ASC-J9 or ASC-JM17 for 1 hour and then TLR ligand, R848 were added for 6 hours. Expression of mouse cytokine genes were measured by RT-qPCR. *: p<0.01.
# as §8, §9
# (§10) We also evaluate anti-inflammatory effects of J9 and JM17 on mouse splenocytes and bone marrow derived macrophages. Mouse splenocytes were pre-treated with J9 and JM17 for 1 hr and TLR ligand, R848, were then added for 6 hrs.
# [6] = test system: R848 induced cytokine expression in mouse bone marrow derived macrophages (BMDM); experiment: R848 induced cytokine expression in bone marrow derived macrophages by RT-qPCR; format: cell-based; conditions: 1 μM pre-treatment 1 hour, R848 6 hours
# Description: Macrophages were pre-treated with 1 μM of ASC-J9 or ASC-JM17 for 1 hour and then TLR ligand, R848 were added for 6 hours. Expression of mouse cytokine genes were measured by RT-qPCR. *: p<0.01; ns: not significant.
# as §7, §8, §9, §10
# [7] = test system: IMQ-induced psoriatic inflammation; experiment: IMQ-induced psoriatic inflammation model, #2 animal experiment (5 days); format: in vivo, Balb/c mice; conditions: for IMQ-induced inflammation: photographic observation
# Description: Balb/c mice were topical treated with imiquimod (IMQ) and with control cream, different dose of ASC-J9 for consecutive 5 days. (A) Schematic schedule was illustrated. Photographic observations in each group were shown at day 0 (B), day 5 (C).
# Balb/c mice were topical treated with imiquimod (IMQ) and with control cream, different dose of ASC-J9 for consecutive 5 days. (A) The severity of inflammatory responses on the skin was assessed on the basis of the Psoriasis Area Severity Index. (B) Five days after treatment, the mice were sacrificed and their skin thickness was measured with vernier caliper to assess the severity of the psoriatic responses. […]
# as §1, §2
# To further understand the therapeutic effects of different concentration of J9 cream, 0.5% J9 (2 mg/cm^2 and 6 mg/cm^2), 0.1% J9 (10 mg/cm^2) and 0.05% J9 cream(2 mg/cm^2) were used to evaluate therapeutic effects on IMQ-induced psoriatic inflammation in a five-day experimental schedule (FIG. 7A). Mice of each group were photoed for evaluation at day 0 and day 5 (FIGS. 7B and 7C). […] PASI score, skin thickness and gene expression of lesional skin were also measured.
# [8] = test system: artemin (ARTN) expression in keloid patient derived fibroblasts 256K and 268K; experiment: ARTN mRNA expression in keloid patient derived fibroblasts by qPCR; format: cell-based, human; conditions: keloid fibroblasts 256K and 268K, 24 hr treatment, mRNA by qPCR vs GAPDH
# Description: Two keloid patient derived fibroblasts named 256K and 268K were treated with ASC-J9 for 24 hr. The cells were then harvested and mRNA expression of ARTN and GAPDH were determined by qPCR.
structure (smiles),measurement,setting,value
"C[C@H]1C[C@H]2[C@@H]3CCC4=CC(=O)C=C[C@]4(C)[C@@]3(F)[C@@H](O)C[C@]2(C)[C@@]1(O)C(=O)CCl [clobetasol, reference compound]",skin thickness,"[1]; clobetasol 0.05% 8 mg/cm^2, day 10, compared to sham control group",reduced skin thickness compared to sham control group
same,"IMQ-induced erythema, scaling and increase of skin thickness in lesional skin","[1]; clobetasol 0.05% 8 mg/cm^2 topical daily, after 5 day treatment",strongly inhibited
COc1ccc(/C=C/C(=O)CC(=O)/C=C/c2ccc(OC)c(OC)c2)cc1OC [ASC-J9],non-toxic doses (cells resistant up to),[2],up to 10 μM
same,non-toxic doses (cells resistant up to),[3],up to 10 μM
same,TNF-α or IL-1β induced IL-1β expression,[4],significantly inhibit
same,TNF-α or IL-1β induced IL-22 expression,[4],did not attenuate
same,TNF-α or IL-1β induced TNF-α expression,[4],significantly inhibit
same,R848 induced IL-1β expression,[5],significantly inhibited
same,R848 induced IL-17A expression,[5],significantly inhibited
same,R848 induced IL-22 expression,[5],significantly inhibited
same,R848 induced TNF-α expression,[5],significantly inhibited
same,R848-induced expression of IL-1β,[6],inhibited
same,R848-induced expression of IL-17A,[6],inhibited
same,R848-induced expression of IL-22,[6],inhibited
same,R848-induced expression of IL-31,[6],inhibited
same,R848-induced expression of TNF-α,[6],inhibited
same,"erythema, scaling, and thickness in lesional skins","[1]; 0.5% J9 cream 2 mg/cm^2 topical daily, after 5 day treatment",significantly reduced
same,"erythema, scaling, and thickness in lesional skins","[1]; 0.5% J9 cream 10 mg/cm^2 topical daily, after 5 day treatment",significantly reduced
same,IMQ-induced increase of skin thickness,"[1]; J9 2 mg/cm^2, measured at day 10 with vernier caliper",significantly inhibited
same,Psoriasis Area Severity Index (PASI) score,"[1]; J9 2 mg/cm^2 topical daily, at day 3 to day 10",significantly decreased
same,IMQ-induced increase of skin thickness,"[1]; J9 10 mg/cm^2, measured at day 10 with vernier caliper",significantly inhibited
same,Psoriasis Area Severity Index (PASI) score,"[1]; J9 10 mg/cm^2 topical daily, at day 4 to day 6",significantly decreased
same,IMQ-induced IL-1β expression in lesional skin,"[1]; at day 10, RT-qPCR",attenuated
same,thickeness of the epidermis and dermis and keratinocyte proliferation in epidermis and inflammation (H&E staining),[1]; lesional skin after 10 day treatment,reduced
same,IMQ-induced expression of IL-1(3 in lesional skin),"[7]; 0.1% J9 10 mg/cm^2, RT-qPCR",inhibited
same,IMQ-induced expression of TNF-a in lesional skin,"[7]; 0.1% J9 10 mg/cm^2, RT-qPCR",inhibited
same,IMQ-induced inflammation,"[7]; 0.1% J9 10 mg/cm^2, after 5 day treatment",inhibited
same,PASI scores,"[7]; 0.1% J9 10 mg/cm^2, at day 4 to day 5",marked decreased
same,IMQ-induced expression of IL-1(3 in lesional skin),"[7]; 0.5% J9 2 mg/cm^2, RT-qPCR",inhibited
same,IMQ-induced expression of TNF-a in lesional skin,"[7]; 0.5% J9 2 mg/cm^2, RT-qPCR",inhibited
same,IMQ-induced inflammation,"[7]; 0.5% J9 2 mg/cm^2, after 5 day treatment",inhibited
same,PASI scores,"[7]; 0.5% J9 2 mg/cm^2, at day 4 to day 5",marked decreased
same,IMQ-induced expression of IL-1(3 in lesional skin),"[7]; 0.5% J9 6 mg/cm^2, RT-qPCR",inhibited
same,IMQ-induced expression of TNF-a in lesional skin,"[7]; 0.5% J9 6 mg/cm^2, RT-qPCR",inhibited
same,IMQ-induced inflammation,"[7]; 0.5% J9 6 mg/cm^2, after 5 day treatment",inhibited
same,PASI scores,"[7]; 0.5% J9 6 mg/cm^2, at day 4 to day 5",marked decreased
same,artemin (ARTN) expression (pruritus marker),[8],down-regulating
